Like-named read-outs stand apart in the source and are kept apart here.
Legend:
TK6 cells [1] = experiment: Tubulin visualization; type: cell-based, human; conditions: 6 h; CBG 30 µM, CBD 15 µM, CBC 15 µM, CBN 15 µM; visually compared to control, not quantified
Description: For tubulin visualization, cells were treated with CBG 30 µM, CBD 15 µM, CBC 15 µM, CBDV 40 µM, and CBN 15 µM. The positive control was vincristine sulphate 0.0121 µM, and the solvent control was DMSO. Cells were treated for 6 h and then harvested. Slides were prepared with cytospin centrifugation. The cells were fixed in ice-cold methanol for 2 h. Following fixation, cells were permeabilized with 0.1% Tween20 in 1 × phosphate-buffered saline (PBS) for 5 min. Next, the anti-α-tubulin antibody was applied in 1:50 dilution. Antibody was diluted with 5% FCS in 1 × PBS. The antibody was incubated in a humid chamber at 4 °C for 24 h. Afterwards, the antibody was removed by washing slides twice with 0.5% Tween20 in 1 × PBS for 5 min. Nuclei were counterstained with Hoechst 33,258 (5 µg/mL, 3 min). The visualization was performed with a Keyence BZ-X800 microscope.

TK6 cells [2] = experiment: Cell cycle analysis (flow cytometry, DAPI); type: cell-based, human
Description: The cells were treated with CBG 30 µM, CBD 15 µM, CBC 15 µM, CBDV 40 µM, and CBN 15 µM for 6 or 24 h. The positive control was vincristine sulphate in a concentration of 0.0121 µM for 6 h of exposure and 0.0061 µM for 24 h. The solvent control was DMSO. Furthermore, experiments with the addition of S9 mix were performed with CBDV. In these experiments, cells were treated with CBDV (40 µM) with or without 0.25% S9 mix for 6 h. DMSO with or without the S9 mix was used as control, and the positive control was the same as mentioned above. After the treatment, cells were collected, washed twice with phosphate buffered saline (PBS) and fixed with 70% ethanol for 30 min on ice. Following each described step above, cells were centrifuged at 1000 rpm, 5 min, and 4 °C. Lastly, cells were resuspended in 1% bovine serum albumin (BSA) in PBS solution and stained with DAPI in a final concentration of 1 µg/mL for 30 min on ice. The cell distribution in different cell cycle phases was analyzed with MACSQuant® Analyzer 16 Flow Cytometer using a 450/50 nm filter and MACSQuantify™ Software 2.13 (Miltenyi Biotec, Bergisch Gladbach, Germany). For each sample, 20 000 events were analyzed. Four independent experiments were performed for 6 h of treatment without metabolic activation. Three independent experiments were done for 24 h of treatment without metabolic activation and 6 h of treatment with metabolic activation.

[3] = parameters: method as in Peters et al. [2022]; conditions: after consuming medical cannabis oil, ref Peters et al. [2022], cited from earlier work
[4] = tested on: human lymphoblastoid TK6 cells; experiment: Kinetochore analysis of micronuclei; type: cell-based; conditions: 4 h; for Kinetochore (+) MNi, %: of 200 micronuclei, CBG 30 µM, CBD 15 µM, CBC 15 µM, CBDV 40 µM, CBN 15 µM, MMS 40 µM, vincristine 0.0121 µM, one experiment
Description: For kinetochore analysis, cells were treated for 4 h with CBG 30 µM, CBD 15 µM, CBC 15 µM, CBDV 40 µM, and CBN 15 µM. The positive controls were MMS 40 µM, and vincristine sulphate 0.0121 µM; the solvent control was DMSO. After 4 h of treatment, the culture medium was renewed, and cells were exposed for 24 h to the cytokinesis inhibitor cytochalasin B (3 μg/mL). Then, cells were harvested, and slides were prepared with cytospin centrifugation. The cells were fixed in ice-cold methanol for 2 h. Kinetochores were stained overnight with undiluted primary anti-centromere antibody at 37 °C followed by 1:20 diluted FITC-conjugated secondary antibody at 37 °C for 2 h. Nuclei were counterstained with Hoechst 33,258 (5 µg/mL, 3 min). The experiment was performed one time. Per compound, 200 micronuclei were evaluated for kinetochore signal presence (Fig. 3). The evaluation was performed with a Keyence BZ-X800 microscope. The slides used in kinetochore evaluation were also evaluated for the number of induced micronuclei as described in the above paragraph cytokinesis‑block micronucleus assay.

[5] = tested on: human lymphoblastoid TK6 cells; experiment: Cytokinesis-block micronucleus (CBMN) assay; conditions: for BMDL (10th percentile): 10th percentile of BMD50 estimation; for BMDL (10th percentile) / BMDU (90th percentile) / Number of micronuclei with S9 mix vs without: 4 h; for BMDL (10th percentile) / BMDU (90th percentile): micronucleus data; for 4 h BMD50: 50% increased relative genotoxicity vs controls, from micronucleus data, without S9, Bayesian BMD analysis; for 4 h BMD50 / Micronucleus induction: 4 h treatment; for BMDU (90th percentile): 90th percentile of BMD50 estimation; for Number of micronuclei with S9 mix vs without: CBG 30 µM, CBD 15 µM, CBC 15 µM, CBDV 40 µM, CBN 15 µM, 0.25% S9 mix; for Micronucleus induction: without metabolic activation, at least one concentration, vs solvent control
[6] = parameters: method as in Hurley et al. ([2022]); conditions: epilepsy treatment in children, ref Hurley et al. ([2022]), cited from earlier work
[7] = tested on: human buccal cell line TR146; parameters: method as in Russo et al. ([2019]); conditions: TR146, after 3 and 24 h; ref Russo et al. ([2019]); cited from earlier work
[8] = tested on: human lymphoblastoid TK6 cells; conditions: for 4 h BMD50 / BMDL (10th percentile) / BMDU (90th percentile): human, 4 h
[9] = tested on: adult neural stem/progenitor cells; parameters: method as in Lourenço et al. ([2023]); conditions: 7 days of exposure; phase not indicated; ref Lourenço et al. ([2023]); cited from earlier work
[10] = frequent Cannabis smokers, inhalation, ref Newmeyer et al. [2016], cited from earlier work; for Cmax: read-out: Mean maximum concentration (Cmax) in blood
[11] = tested on: human mesothelioma, cholangiocellular carcinoma and ovarian carcinoma cell lines; parameters: method as in earlier work; conditions: 24 h of treatment; correlates with decrease of cell percentage in S phase; ref Viereckl et al. [2022]; Colvin et al. [2022]; Sooda et al. [2023]; cited from earlier work
[12] = parameters: method as in Zhong et al. [2023]; conditions: depending on the cell line; downregulating CDK1, CDK2 and cyclin E; ref Zhong et al. [2023]; cited from earlier work
TK6 cells [13] = experiment: Mitotic disturbance assay; type: cell-based, human; conditions: 6 h, without S9; CBG 30 µM, CBD 15 µM, CBC 15 µM, CBDV 40 µM, CBN 15 µM; vs solvent control
Description: The cells were treated for 6 h with CBG 30 µM, CBD 15 µM, CBC 15 µM, CBDV 40 µM, and CBN 15 µM. The positive control was vincristine sulphate 0.0121 µM, and the solvent control was DMSO. For the experiments with or without the S9 mix (final concentration 0.25%), TK6 cells were treated with either CBDV 40 µM or vincristine sulphate 10 ng/mL for 6 h. DMSO with or without S9 mix was used as control. Further procedure was as described for micronucleus experiments, except with direct harvest after cannabinoid treatment without the incubation period with cytochalasin B. Two slides were evaluated with a Nikon Eclipse 55i fluorescent microscope for each experimental condition. The independent experiments were conducted three times.
The cells were counted in categories apoptosis, interphase, prophase, metaphase, anaphase-telophase, disturbed metaphase, and disturbed anaphase-telophase in 1000 cells. The mitotic index was calculated as a sum of the number of cells in prophase, metaphase, anaphase-telophase, disturbed metaphase, and disturbed anaphase-telophase in 1000 cells. Disturbed metaphase and disturbed anaphase-telophase were defined as deviating from the usual appearance of mitoses. Disturbed mitoses were assessed in 100 mitotic cells per slide.

[14] = 6 h, without S9, CBG 30 µM, CBD 15 µM, CBC 15 µM, CBDV 40 µM, CBN 15 µM
[15] = treatment – control (basal level of micronuclei subtracted), same concentrations

Compound: CCCCCc1cc(O)c2c(c1)OC(C)(CCC=C(C)C)C=C2 (centres unmarked) [CBC, cannabichromene]
- Multipolar and monopolar tubulin aggregation (TK6 cells [1]): observed more frequently
- Cell cycle distribution, 6 h (TK6 cells [2]; [14]): no significant changes in the normal cell cycle distribution
- Cell cycle distribution (time not given) (TK6 cells [2]; TK6, CBC 15 µM, CBN 15 µM, 6 or 24 h): did not observe a change in cell cycle distribution
- Mean Cmax concentration in plasma [3]: 6.6 ng/mL
- Cmax ([3]; read-out: Mean Cmax concentration in plasma): 21 nM
- Kinetochore (+) MNi, % [4]: 48.5%
- Kinetochore (+) induced MNi [4, 15]: 69.7%
- BMDL (10th percentile) [5]: 2.5 µM
- 4 h BMD50 [5]: 9.8 µM
- BMDU (90th percentile) [5]: 34.5 µM
- Number of micronuclei with S9 mix vs without [5]: reduced as well, but not significantly
- Micronucleus induction [5]: significant induction of micronuclei

Compound: C=C(C)[C@@H]1CCC(C)=C[C@H]1c1c(O)cc(CCC)cc1O [CBDV, cannabidivarin]
- Mean plasma Cmax [6]: 7.4 ng/mL
- Cmax ([6]; read-out: Mean plasma Cmax): 25.8 nM
- DNA damage (comet assay) [7]: had the same effect on the cells as CBD
- Cell cycle distribution, 6 h (TK6 cells [2]; human, 6 h, 40 µM): slight non-significant rise in cell percentage in the G1 phase
- Cell cycle distribution, absence or presence of metabolic enzymes (TK6 cells [2]; human, 6 h, 40 µM): cell accumulation in the G1 phase
- Micronucleus induction [8]: induced micronuclei only after metabolic activation
- Number of micronuclei with S9 mix vs without [8]: significant rise in micronuclei frequency
- 4 h BMD50 [8]: 15.3 µM
- BMDL (10th percentile) [8]: 1.4 µM
- BMDU (90th percentile) [8]: 102.9 µM
- Kinetochore (+) induced MNi ([4]; human): 69.8%
- Cell cycle effect [9]: induced cell cycle arrest

Compound: CCCCCc1cc(O)c(C/C=C(\C)CCC=C(C)C)c(O)c1 [CBG, cannabigerol]
- Micronucleus induction [8]: significant induction of micronuclei
- Number of micronuclei with S9 mix vs without [8]: significant reduction in the number of micronuclei
- 4 h BMD50 [8]: 20.5 µM
- BMDL (10th percentile) [8]: 3.9 µM
- BMDU (90th percentile) [8]: 64.1 µM
- Kinetochore (+) induced MNi ([4]; human): 61.5%
- Mean maximum concentration (Cmax) in blood [10]: 6.9 ng/mL
- Cmax [10]: 21.8 nM
- Cell cycle effect [11]: arresting cells in the G0/G1 phase

Compound: CCCCCc1cc(O)c2c(c1)OC(C)(C)c1ccc(C)cc1-2 [CBN, cannabinol]
- Multipolar and monopolar tubulin aggregation (TK6 cells [1]): observed more frequently
- Cell cycle effect [12]: cell cycle arrest in either the G0/G1 phase or S phase
- Cell cycle distribution, 6 h (TK6 cells [2]; [14]): no significant changes in the normal cell cycle distribution
- Mitotic index (TK6 cells [13]): significantly decreased the mitotic index
- Kinetochore (+) MNi, % [4]: 46%
- Kinetochore (+) induced MNi [4, 15]: 63.3%
- BMDL (10th percentile) [5]: 2.7 µM
- 4 h BMD50 [5]: 8.4 µM
- BMDU (90th percentile) [5]: 16.9 µM
- Number of micronuclei with S9 mix vs without [5]: significant reduction in the number of micronuclei
- Micronucleus induction [5]: significant induction of micronuclei
- Cmax [10]: 37.4 nM

Compound: COS(C)(=O)=O [MMS, methyl methane sulfonate, reference compound]
- Kinetochore (+) MNi, % [4]: 38%
- Kinetochore (+) induced MNi [4, 15]: 41.9%

— publication PMC11402852, “Genotoxicity of selected cannabinoids in human lymphoblastoid TK6 cells” (Archives of Toxicology, 2024)
